Columns and labels:
A. muciniphila = experiment: qPCR of relative abundance of A. muciniphila in intestinal flora of SPF mice; assay type: in vivo; details: p<0.05
Experimental: In order to verify the changes in the relative abundance of A.muciniphila in the intestinal flora of mice fed with other HD, qPCR experiments were performed on the changes of intestinal flora in mice. Faecal bacterial DNA was extracted from the faeces of mice in the NC, HFD, D1, D2, D3, D5, D7, D8, D9 and D10 groups collected in the pre-SPF mice experiments and then the relative abundance of A. muciniphila was determined using qPCR.

[1] = SPF mice feeding experiment (high-fat diet); assay type: in vivo, C57/B16J mice; details: for subcutaneous and visceral fat weight (inguinal subcutaneous, epididymis, perirenal) vs HFD group: 8 weeks; for weekly feed intake vs control HFD group: after 3-4 weeks; for body weight decrease compared with the HFD group: intragastric 0.75 mg-3 mg/Kg once/day, after 8 weeks
Experimental: C57/B16J mice were used in the SPF mice experiment. At the beginning of the experiment, C57/B16J mice were 4 weeks old, and each weighed 15±1 g. They were raised in a room with suitable temperature and humidity control, and the light/dark cycle was 12 hours, free diet and drinking water, and fed with standard laboratory feed (also known as growth and reproduction feed, item number SPFSLFZ003, product of SPF (Beijing) Experimental Animal Technology Co., Ltd.). After one week of adaptation, they were randomly assigned to a cage, 4-6 mice per cage.
A total of 12 treatments were set up, each with 2 cages of C57/B16J mice, and each treatment was subjected to different feeding treatments, specifically as follows:
NC group (i.e. normal diet group): fed with standard laboratory feed (also known as growth and reproduction feed, SPFSLFZ003), free diet and drinking water, each intragastrically administrated with 0.2 ml solvent daily for 8 weeks.
HFD group (i.e. high-fat diet group): fed with high-fat diet, the high-fat diet used was rodent feed (containing 60% fat, D12492, formula reference Le Roy, T., et al. Dysosmobacter welbionis is a newly isolated human commensal bacterium preventing diet-induced obesity and metabolic disorders in mice. Gut (2021).), free diet and drinking water, each intragastrically administrated with 0.2 ml solvent daily for 8 weeks.
(§1) D1 group (i.e. high-fat diet+D1 intragastric administration group): fed with high-fat diet, free diet and drinking water. Intragastrically administrated with synthetic D1, 0.75 mg-3 mg/Kg body weight, 0.2 ml, once/day for 8 weeks.
(§2) D2 group (i.e. high-fat diet+D2 intragastric administration group): fed with high-fat diet, free diet and drinking water. Intragastrically administrated with synthetic D2, 0.75 mg-3 mg/Kg body weight, 0.2 ml, once/day for 8 weeks.
D3 group (i.e. high-fat diet+D3 intragastric administration group): fed with high-fat diet, free diet and drinking water. Intragastrically administrated with synthetic D3, 0.75 mg-3 mg/Kg body weight, 0.2 ml, once/day for 8 weeks.
D4 group (i.e. high-fat diet+D4 intragastric administration group): fed with high-fat diet, free diet and drinking water. Intragastrically administrated with synthetic D4, 0.75 mg-3 mg/Kg body weight, 0.2 ml, once/day for 8 weeks.
D5 group (i.e. high-fat diet+D5 intragastric administration group): fed with high-fat diet, free diet and drinking water. Intragastrically administrated with synthetic D5, 0.75 mg-3 mg/Kg body weight, 0.2 ml, once/day for 8 weeks.
D6 group (i.e. high-fat diet+D6 intragastric administration group): fed with high-fat diet, free diet and drinking water. Intragastrically administrated with synthetic D6, 0.75 mg-3 mg/Kg body weight, 0.2 ml, once/day for 8 weeks.
D7 group (i.e. high-fat diet+D7 intragastric administration group): fed with high-fat diet, free diet and drinking water. Intragastrically administrated with synthetic D7, 0.75 mg-3 mg/Kg body weight, 0.2 ml, once/day for 8 weeks.
D8 group (i.e. high-fat diet+D8 intragastric administration group): fed with high-fat diet, free diet and drinking water. Intragastrically administrated with synthetic D8, 0.75 mg-3 mg/Kg body weight, 0.2 ml, once/day for 8 weeks.
D9 group (i.e. high-fat diet+D9 intragastric administration group): fed with high-fat diet, free diet and drinking water. Intragastrically administrated with synthetic D9, 0.75 mg-3 mg/Kg body weight, 0.2 ml, once/day for 8 weeks.
D10 group (i.e. high-fat diet+D10 intragastric administration group): fed with high-fat diet, free diet and drinking water. Intragastrically administrated with synthetic D10, 0.75 mg-3 mg/Kg body weight, 0.2 ml, once/day for 8 weeks.
The feed intake was tracked every week. After the experiment, the mice were weighed and photographs were taken to compare the body size of the mice. After that, the mice were killed by cervical dislocation. […]

[2] = cited from earlier work
[3] = Short-term feed intake experiment of SPF mice; assay type: in vivo, C57/B16J mice; details: after 8 weeks of treatment, starved one day then fed
Experimental: A total of 2 treatments were set up, each with one cage of C57/B16J mice, and the high-fat diet used was rodent feed (containing 60 kcal % fat, D12492), and each treatment was subjected to different feeding treatments, specifically as follows:
HFD group (i.e. high-fat diet group): fed with high-fat diet.
as §1, §2
D3 group (i.e. high-fat diet+D3 intragastric administration group): fed with high-fat diet, free diet and drinking water. […]
According to the above treatment, it was carried out for 8 weeks, and then within 1 week, the mice were starved for one day and then given feed, and the feed intake of the animals in the following day was recorded. That is, food weights were recorded every other day (4 separate measurements) and the average daily intake was determined for each 2-day period and calculated for each individual during the one-week measurement period. […]

[4] = Phase 3, overweight or obese adults, subcutaneous 2.4 mg/week

Compound | relative abundance of A. muciniphila in the intestinal flora by qPCR (A. muciniphila) | subcutaneous and visceral fat weight (inguinal subcutaneous, epididymis, perirenal) vs HFD group [1] | weekly feed intake vs control HFD group [1] | body weight decrease compared with the HFD group [1] | other results
GTRYKRTGR [D8] | significantly increased | significantly lower than that of the HFD group | significant difference in feed intake | 10.07% | 
RTRYKRTGR [D1] | significantly increased | significantly lower than that of the HFD group | significant difference in feed intake | 11.62% | 
GTCYCRTGR [D7] | significantly increased | significantly lower than that of the HFD group | significant difference in feed intake | 8.08% | 
RTCYKRTGR [D5] | significantly increased | significantly lower than that of the HFD group | significant difference in feed intake | 11.8% | 
semaglutide |  |  |  |  | average weight lost [2, 4]: 15.3 kg; average weight lost, of initial body weight [2, 4]: 14.9%; mean body mass index (BMI) drop [2, 4]: 5.54
GTRYCRTGR [D10] | significantly increased | significantly lower than that of the HFD group | significant difference in feed intake | 11.06% | 
GTCYKRTGR [D2] | significantly increased | significantly lower than that of the HFD group | significant difference in feed intake | 9.45% | 
ATRYCRTGR [D6] |  |  | no significant effect | 3.78% | short-term feed intake vs HFD group [3]: no significant effect
CCCCCCCCCCC[C@@H](C[C@@H]1OC(=O)[C@H]1CCCCCC)OC(=O)[C@H](CC(C)C)NC=O [orlistat, Orlistat] |  |  |  |  | body weight lost ([2]; obese patients, within 12 months): 2.9 to 3.4 kg
ATCYRRTGR [D4] |  |  | no significant effect | 3.55% | short-term feed intake vs HFD group [3]: no significant effect
RTCYCRTGR [D9] | significantly increased | significantly lower than that of the HFD group | significant difference in feed intake | 11.09% | 
C[C@H]1CNCCc2ccc(Cl)cc21 [Lorcaserin] |  |  |  |  | additional weight lost per year ([2]; obese subjects during the medication period): 3.2 to 3.6 kg

From patent US20240376148A1, “MEDICAMENT FOR INHIBITING DIETARY OBESITY AND POLYPEPTIDE USED THEREFOR” (INSTITUTE OF ZOOLOGY, CHINESE ACADEMY OF SCIENCES, priority 2022, published 2024)
